Results: US9982005B2, “Macrolides and methods of their preparation and use” (President and Fellows of Harvard College, priority 2013, dated 2018)
Values after ≈ are worked out from the molar mass of the structure shown. Like-named read-outs stand apart in the source and are kept apart here.

Key:
[1] = system: Spn1427 S. pneumoniae ermB positive mefA negative; assay: broth dilution MIC, S. pneumoniae Spn1427; format: cell-based; settings: Streptococcus pneumoniae
In short: (§1)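 Values are broth dilution MICs measured according to CLSI standard procedure; the macrolide azithromycin was tested as control.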

[2] = system: Spn160 S. pneumoniae ermB unknown mefA positive; assay: broth dilution MIC, S. pneumoniae Spn160; format: cell-based; settings: Streptococcus pneumoniae; Spn160 S. pneumoniae ermB unknown mefA positive; read-out: MIC
In short: as §1

H. influenzae strains = assay: MIC against H. influenzae strains (Table M8); format: cell-based; settings: Haemophilus influenzae
In short: as §1

[3] = system: BS1723 B. subtilis BS168 WT wild type; assay: broth dilution MIC, B. subtilis BS1723; format: cell-based; settings: Bacillus subtilis, BS1723 B. subtilis BS168 WT wild type; read-out: MIC
In short: as §1

[4] = system: S. aureus (Newman, clinical isolate); assay: MIC, S. aureus Newman; format: cell-based; settings: Staphylococcus aureus, S. aureus (Neuman, clinical isolate), round 2
In short: as §1

[5] = system: Spn1537 S. pneumoniae ermB positive mefA positive; assay: broth dilution MIC, S. pneumoniae Spn1537; format: cell-based; settings: Streptococcus pneumoniae
In short: as §1

[6] = system: SA1708 S. aureus ermA positive msrA negative; assay: broth dilution MIC, S. aureus SA1708; format: cell-based; settings: Staphylococcus aureus
In short: as §1

E. coli strains = assay: MIC against E. coli strains (Table M7); format: cell-based; settings: Escherichia coli, ATCC25922, E. coli ATCC 25922
In short: as §1

[7] = system: SA557 S. aureus ermA unknown msrA positive; assay: broth dilution MIC, S. aureus SA557; format: cell-based; settings: Staphylococcus aureus; SA557 S. aureus ermA unknown msrA positive; read-out: MIC
In short: as §1

[8] = system: SA418 S. aureus ermA negative msrA positive; assay: broth dilution MIC, S. aureus SA418; format: cell-based; settings: Staphylococcus aureus
In short: as §1

[9] = system: SA506 S. aureus ermA positive msrA unknown; assay: broth dilution MIC, S. aureus SA506; format: cell-based; settings: Staphylococcus aureus
In short: as §1

EC878 E. coli tolC = assay: broth dilution MIC, E. coli EC878; format: cell-based; settings: Escherichia coli
In short: as §1

[10] = system: HI175 H. influenzae ATCC49247; assay: broth dilution MIC, H. influenzae HI175; format: cell-based; settings: Haemophilus influenzae
In short: as §1

EC882 E. coli imp = assay: broth dilution MIC, E. coli EC882; format: cell-based; settings: Escherichia coli
In short: as §1

S. aureus strains = assay: MIC against S. aureus strains (Table M7); format: cell-based; settings: for MIC: Staphylococcus aureus
In short: as §1

HI281 H. influenzae = assay: broth dilution MIC, H. influenzae HI281; format: cell-based; settings: Haemophilus influenzae
Description: We have collected MIC data for a total of 50 novel macrolides that this platform has produced against over 21 unique strains of B. subtilis, E. coli, S. aureus, S. pneumoniae, and H. influenzae, including several multidrug-resistant strains, with a special focus on macrolide resistant mechanisms (vide supra). Azithromycin was included as a control macrolide. CLSI standard procedures for broth dilution MIC determination were used. […] These genotypes can be constitutive or inducible. The finding that C4-epi (unnatural) isomers of the “azaketolide” macrolide class have enhanced activities relative to C4 natural isomers is very exciting.

[11] = system: Spn1509 S. pneumoniae ermB positive mefA negative; assay: broth dilution MIC, S. pneumoniae Spn1509; format: cell-based; settings: Streptococcus pneumoniae
In short: as §1

K. pneumoniae strains = assay: MIC against K. pneumoniae strains (Table M8); format: cell-based; settings: Klebsiella pneumoniae, K. pneumoniae 10031
E. coli (MC4100) = assay: MIC, E. coli MC4100; format: cell-based; settings: Escherichia coli, round 2, read-out: MIC
In short: as §1

E. faecalis strains = assay: MIC against E. faecalis strains (Table M8); format: cell-based
[12] = system: Spn1533 S. pneumoniae ermB positive mefA positive; assay: broth dilution MIC, S. pneumoniae Spn1533; format: cell-based; settings: Streptococcus pneumoniae
In short: as §1

[13] = system: SA183 S. aureus ermA positive msrA unknown; assay: broth dilution MIC, S. aureus SA183; format: cell-based; settings: Staphylococcus aureus
In short: as §1

[14] = system: SA1707 S. aureus ermA negative msrA positive; assay: broth dilution MIC, S. aureus SA1707; format: cell-based; settings: Staphylococcus aureus
In short: as §1

BS1725 B. subtilis ermC = assay: broth dilution MIC, B. subtilis BS1725; format: cell-based; settings: Bacillus subtilis
In short: as §1

S. pneumoniae strains = assay: MIC against S. pneumoniae strains (Tables M7, M8); format: cell-based; settings: Streptococcus pneumoniae
Description: CLSI standard procedures for broth dilution MIC determination were used. […] These genotypes can be constitutive or inducible.

EC107 E. coli ATCC25922 = assay: broth dilution MIC, E. coli EC107; format: cell-based; settings: Escherichia coli, read-out: MIC
In short: as §1

[15] = system: Spn 106 S. pneumonia ATCC49619; assay: broth dilution MIC, S. pneumoniae Spn 106; format: cell-based; settings: Streptococcus pneumoniae
In short: as §1

[16] = system: SA101 S. aureus ATCC29213; assay: broth dilution MIC, S. aureus SA101; format: cell-based; settings: Staphylococcus aureus, ATCC29213, SA101 S. aureus ATCC29213; read-out: MIC
In short: as §1

[17] = from CC[C@@H](O)[C@@]1(C)OC(=O)N(CCCCN=[N+]=[N-])[C@@H]1[C@@H](C)NC[C@H](C)C[C@@](C)(OC)[C@H](O[C@@H]1OC(C)CC(N(C)C)C1OC(=O)OC)[C@@H](C)C1=C(C)C(=O)OC(C)(C)O1; ester bond; toluene; 3.97 mM; 111.0 °C; 40.0 h

Compound | MIC [1] | MIC [2] | MIC [3] | MIC [5] | MIC [6] | MIC [7] | MIC [8] | MIC [9] | MIC (EC878 E. coli tolC) | MIC [10] | MIC (EC882 E. coli imp) | MIC (HI281 H. influenzae) | MIC [12] | MIC [13] | MIC [14] | MIC (BS1725 B. subtilis ermC; BS1725 B. subtilis ermC (+ery)) | MIC (BS1725 B. subtilis ermC; BS1725 B. subtilis ermC (−ery)) | MIC (EC107 E. coli ATCC25922) | MIC [16] | other results
CC[C@H]1OC(=O)[C@H](C)[C@@H](O[C@H]2C[C@@](C)(OC)[C@@H](O)[C@H](C)O2)[C@H](C)[C@@H](O[C@@H]2O[C@H](C)C[C@H](N(C)C)[C@H]2O)[C@](C)(O)C[C@@H](C)CN(C)[C@H](C)[C@@H](O)[C@]1(C)O [Azithromycin, reference compound] | > 32 µg/mL | 2 µg/mL (≈ 2.67 µM) | 0.5 µg/mL (≈ 0.668 µM) | > 32 µg/mL | > 32 µg/mL | > 32 µg/mL | > 32 µg/mL | > 32 µg/mL | 0.5 µg/mL (≈ 0.668 µM) | 2 µg/mL (≈ 2.67 µM) | 0.0625 µg/mL (≈ 0.0834 µM) | 4 µg/mL (≈ 5.34 µM) | > 32 µg/mL | > 32 µg/mL | > 32 µg/mL | > 32 µg/mL | > 32 µg/mL | 4 µg/mL (≈ 5.34 µM) | 1 to 2 µg/mL (≈ 1.34 to 2.67 µM) | MIC (H. influenzae strains; H. influenzae 49247, read-out: MIC H. influenzae (49247)): 0.25 µg/mL (≈ 0.334 µM); MIC (H. influenzae strains; H. influenzae 49766, read-out: MIC H. influenzae (49766)): 2 µg/mL (≈ 2.67 µM); MIC [4]: 1 µg/mL (≈ 1.34 µM); MIC (E. coli strains): 8 µg/mL (≈ 10.7 µM); MIC S. aureus (ATCC 29213) (S. aureus strains; S. aureus ATCC 29213): 1 µg/mL (≈ 1.34 µM); MIC (S. aureus strains; ATCC29213, S. aureus ATCC 29213, read-out: MIC S. aureus (ATCC 29213)): 2 µg/mL (≈ 2.67 µM); MIC (S. aureus strains; S. aureus 183, read-out: MIC S. aureus (183)): > 32 µg/mL; MIC (S. aureus strains; S. aureus 506, read-out: MIC S. aureus (506)): > 32 µg/mL; MIC (S. aureus strains; S. aureus 1708, read-out: MIC S. aureus (1708)): > 32 µg/mL; MIC (S. aureus strains; USA300, S. aureus USA300, read-out: MIC S. aureus (USA300)): > 32 µg/mL; MIC [11]: > 32 µg/mL; MIC (K. pneumoniae strains): 2 µg/mL (≈ 2.67 µM); MIC (E. coli (MC4100)): 8 µg/mL (≈ 10.7 µM); MIC E. faecalis (29212) (E. faecalis strains): 16 µg/mL (≈ 21.4 µM); MIC (E. faecalis strains; Enterococcus faecalis, E. faecalis 29212): 8 µg/mL (≈ 10.7 µM); MIC (S. pneumoniae strains; S. pneumoniae 160, read-out: MIC S. pneumonae (160)): 2 µg/mL (≈ 2.67 µM); MIC (S. pneumoniae strains; S. pneumoniae 1509, read-out: MIC S. pneumoniae (1509)): > 32 µg/mL; MIC (S. pneumoniae strains; S. pneumoniae 1533, read-out: MIC S. pneumoniae (1533)): > 32 µg/mL; MIC (S. pneumoniae strains; S. pneumoniae 1537, read-out: MIC S. pneumoniae (1537)): > 32 µg/mL; MIC ([15]; ATCC49619): 0.0625 µg/mL (≈ 0.0834 µM)
CC[C@H]1OC(=O)[C@H](C)C(=O)[C@H](C)[C@@H](O[C@@H]2OC(C)CC(N(C)C)C2OC(=O)OC)[C@](C)(OC)C[C@@H](C)CN[C@H](C)[C@H]2N(CCCCN=[N+]=[N-])C(=O)O[C@]12C (stereo partly shown) | – | – | – | – | – | – | – | – | – | – | – | – | – | – | – | – | – | – | – | ring closure, yield of all isomers [17]: 92%
CC[C@H]1OC(=O)C(C)(F)C(=O)[C@@H](C)[C@@H](O[C@@H]2OC(C)CC(N(C)C)C2O)[C@](C)(OC)C[C@@H](C)CN[C@H](C)[C@H]2N(CCCCn3cc(-c4ccccn4)nn3)C(=O)O[C@]12C (stereo partly shown) [FSM-20716] | > 32 µg/mL | 0.5 µg/mL (≈ 0.601 µM) | 8 µg/mL (≈ 9.62 µM) | > 32 µg/mL | 32 µg/mL (≈ 38.5 µM) | 16 µg/mL (≈ 19.2 µM) | 16 µg/mL (≈ 19.2 µM) | > 32 µg/mL | 1 µg/mL (≈ 1.2 µM) | 8 µg/mL (≈ 9.62 µM) | 0.25 µg/mL (≈ 0.3 µM) | > 32 µg/mL | > 32 µg/mL | > 32 µg/mL | 16 µg/mL (≈ 19.2 µM) | > 32 µg/mL | 4 µg/mL (≈ 4.81 µM) | > 32 µg/mL | 8 µg/mL (≈ 9.62 µM) | MIC ([11]; Spn1509 S. pneumoniae ermB positive mefA negative, read-out: MIC): 8 µg/mL (≈ 9.62 µM); MIC ([15]; Spn 106 S. pneumonia ATCC49619, read-out: MIC): 0.25 µg/mL (≈ 0.3 µM)
